Data published in PubChem BioAssay AID743470 (Broad Institute, 2014).
Records with an inconclusive call do not appear. Activity calls are given as the source filed them.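 How the source made its calls: active means fitted curve falls past -35% at a concentration up to twice the top valid dose; inconclusive means no clear call, values can overlap the other calls; inactive means signal rising instead of falling, plus the rest.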

Assay: HEK293 cell cytotoxicity, dose response, cytotoxicity control, luminescence, dry powder, set 15 (AID 743470)
Settings: HEK293T viability, CellTiter-Glo ATP luminescence, 72 h; at 26 µM (top of the series)
For `COc1cccc(C2C(C#N)=C(N)Oc3cc(N)ccc32)c1` (configuration not stated), the activity change, negative = cytotoxicity was -23.2% (inactive). For `COc1ccc(-c2ccc3c(c2)[C@H]2[C@H](CCN2S(=O)(=O)c2ccc(OC)cc2)[C@@H](CO)N3C)cc1`, the activity change, negative = cytotoxicity was -44.3% (inactive). With `N#CC1=C(N)Oc2cc(O)ccc2C1c1cccc(Br)c1` (configuration not stated) the activity change, negative = cytotoxicity was -24.3% (inactive). In the case of `Cc1ccc([N+](=O)[O-])cc1S(=O)(=O)N(C)C`, the activity change, negative = cytotoxicity was -23.2% (inactive). In the case of `N#Cc1ccc(-c2ccc3c(c2)[C@H]2[C@H](CCN2S(=O)(=O)c2ccccc2F)[C@@H](CO)N3)cc1`, the activity change, negative = cytotoxicity was -7.37% (inactive). In the case of `COc1cccc(S(=O)(=O)N2CC[C@@H]3[C@@H](CO)Nc4ccc(-c5ccc(C#N)cc5)cc4[C@@H]32)c1`, the activity change, negative = cytotoxicity was -26.5% (inactive). With `COc1ccc(-c2ccc3c(c2)[C@H]2[C@H](CCN2S(=O)(=O)c2ccc(OC)cc2)[C@@H](CO)N3)cc1` the activity change, negative = cytotoxicity was -6.28% (inactive). For `C[C@]1(c2nc3c(C(N)=O)cccc3[nH]2)CCCN1`, the activity change, negative = cytotoxicity was -21.6% (inactive). For `COc1ccc(C2=Nn3c(nnc3-c3ccccc3)SC2)cc1OC`, the activity change, negative = cytotoxicity was -1.77% (inactive). In the case of `COc1ccccc1-c1nnc2n1N=C(c1ccc3c(c1)OCO3)CS2`, the activity change, negative = cytotoxicity was -39.2% (inactive). With `N#CC1=C(N)Oc2cc(N)ccc2C1c1cccc(Br)c1` (configuration not stated) the activity change, negative = cytotoxicity was -38% (inactive). With `COc1ccc(S(=O)(=O)N2CC[C@@H]3[C@@H](CO)Nc4ccc(-c5cccc(C#N)c5)cc4[C@@H]32)cc1` the activity change, negative = cytotoxicity was -20.5% (inactive). In the case of `COc1ccc(C2C(C#N)=C(N)Oc3cc(N)ccc32)cc1` (configuration not stated), the activity change, negative = cytotoxicity was -0.135% (inactive). In the case of `COc1cc(Nc2ncc3c(n2)-c2ccc(Cl)cc2C(c2c(F)cccc2OC)=NC3)ccc1C(=O)O`, the activity change, negative = cytotoxicity was 24.7% (inactive). For `COc1ccccc1S(=O)(=O)N1CC[C@@H]2[C@@H](CO)Nc3ccc(-c4ccc(C#N)cc4)cc3[C@@H]21`, the activity change, negative = cytotoxicity was -22.8% (inactive). For `CN1c2ccc(-c3ccc(C#N)cc3)cc2[C@H]2[C@H](CCN2S(=O)(=O)c2ccc(F)cc2)[C@H]1CO`, the activity change, negative = cytotoxicity was 13.6% (inactive). In the case of `COC(=O)c1ccc(C2C(C#N)=C(N)Oc3cc(N)ccc32)cc1` (configuration not stated), the activity change, negative = cytotoxicity was 19.4% (inactive). In the case of `N#CC1=C(N)Oc2ccc3ccccc3c2C1c1cccc(F)c1` (configuration not stated), the activity change, negative = cytotoxicity was -9.08% (inactive). In the case of `Cc1ccc(C2C(C#N)=C(N)Oc3cc(N)ccc32)cc1` (configuration not stated), the activity change, negative = cytotoxicity was -10.5% (inactive). With `Cc1ccc(S(=O)(=O)N2CC[C@@H]3[C@@H](CO)Nc4ccc(-c5ccc(C#N)cc5)cc4[C@@H]32)cc1` the activity change, negative = cytotoxicity was 17.9% (inactive). In the case of `N#CC1=C(N)Oc2cc3c(cc2C1c1cccc(Br)c1)OCO3` (configuration not stated), the activity change, negative = cytotoxicity was -44.4% (inactive). With `N#CC1=C(N)Oc2cc(N)ccc2C12C(=O)Nc1ccc(Br)cc12` (configuration not stated) the activity change, negative = cytotoxicity was 5.19% (inactive). In the case of `CN1c2ccc(-c3ccc(C#N)cc3)cc2[C@H]2[C@H](CCN2S(=O)(=O)c2cccc(F)c2)[C@H]1CO`, the activity change, negative = cytotoxicity was -71.9% (inactive). For `Cc1ccccc1C1C(C#N)=C(N)Oc2cc(N)ccc21` (configuration not stated), the activity change, negative = cytotoxicity was -16.9% (inactive). In the case of `N#CC1=C(N)Oc2cc(OC(=O)c3ccccc3)ccc2C1c1cccc(Br)c1` (configuration not stated), the activity change, negative = cytotoxicity was -25.6% (inactive). With `COc1ccc(C2CNC(=O)C2)cc1OC1CCCC1` (configuration not stated) the activity change, negative = cytotoxicity was -2.74% (inactive). For `O=C(Nc1c(Cl)cncc1Cl)c1ccc(OC(F)F)c(OCC2CC2)c1`, the activity change, negative = cytotoxicity was -18.6% (inactive). For `N#CC1=C(N)Oc2cc(N)ccc2C1c1ccc(Cl)cc1` (configuration not stated), the activity change, negative = cytotoxicity was -11.1% (inactive). With `Cc1cccc(C2C(C#N)=C(N)Oc3cc(N)ccc32)c1` (configuration not stated) the activity change, negative = cytotoxicity was -30.4% (inactive). With `COc1ccc(-c2cc(NC(C)=O)c3ncc(-c4ccc(OC)c(OC)c4)n3c2)cc1` the activity change, negative = cytotoxicity was -25.2% (inactive). In the case of `N#Cc1ccc(-c2ccc3c(c2)[C@H]2[C@H](CCN2S(=O)(=O)c2cccc(F)c2)[C@@H](CO)N3)cc1`, the activity change, negative = cytotoxicity was -39.9% (inactive). For `COc1ccc(OC)c(-c2nnc3n2N=C(c2ccc(OC)c(OC)c2)CS3)c1`, the activity change, negative = cytotoxicity was -31.5% (inactive). With `Cc1c([C@H](C(Cl)Cl)[C@H](O)[C@H]2C[C@H](C)C(=O)O2)ccc2c1C(=O)[C@H]1[C@H]2C[C@@H](Br)[C@@]23O[C@@H](CO[C@H]2O)C[C@]13C` the activity change, negative = cytotoxicity was -35.3% (inactive). For `CN(C(=O)CCCOc1ccc2[nH]c(=O)ccc2c1)C1CCCCC1`, the activity change, negative = cytotoxicity was 27% (inactive).

Same assay, conditions: HEK293T viability, CellTiter-Glo ATP luminescence, 72 h; at 50 µM (top of the series)
For `CCC(C)C(=O)OC1CC(C)C=C2C=CC(C)C(CCC(O)CC(O)CC(=O)O)C21` (configuration not stated), the activity change, negative = cytotoxicity was 55.2% (inactive). In the case of `O=P1(NCCCl)OCCCN1CCCl` (configuration not stated), the activity change, negative = cytotoxicity was 9.21% (inactive).

Same assay, conditions: HEK293T viability, CellTiter-Glo ATP luminescence, 72 h; at 110 µM (top of the series)
In the case of `O=C(c1cc(Cc2n[nH]c(=O)c3ccccc23)ccc1F)N1CCN(C(=O)C2CC2)CC1`, the activity change, negative = cytotoxicity was 31.3% (inactive).
